Data from patent publication US20090035215A1, “RADIOFLUORINATION” (priority 2006, published 2009).

Assay: TABLE 1
Description: Table printed on a drawing sheet, TABLE 1
The patent's description of the figure: FIGS. 1A, 1B, 1C, 2A, 2B, 2C, 3A, 3B AND 3C SHOW INTENSITY/RETENTION TIME CURVES FOR VARIOUS PRODUCTS.

| SMILES | t1/2 [h] | % intact after 6 h [%] |
| --- | --- | --- |
| CC(C)[Si](F)(c1ccc(CCCO)cc1)C(C)C [4c - F] | > 100.0 | – |
| CC(C)[Si](F)(c1cccc(CCCOC2CCCCO2)c1)C(C)C (racemic) [3d - F] | > 100.0 | > 95 |
| CC(C)[Si](F)(c1cccc(CCOC2CCCCO2)c1)C(C)C (racemic) [3e - F] | > 100.0 | > 95 |
